# Results published in patent US20010056101A1 (priority 1998, published 2001).
# Like-named read-outs stand apart in the source and are kept apart here.
# Assays:
# [1] = system: schizophrenia; assay: Clinical antipsychotic efficacy, efficacy tolerance and side effects of dopamine agonists in schizophrenia; format: in vivo, human
# [2] = system: hD3 (Homo sapiens); assay: Affinity and intrinsic activity, Table 4; format: binding
# [3] = system: actively psychotic schizophrenic persons; assay: Clinical test of (−)-3PPP plus haloperidol in actively psychotic schizophrenic persons, BPRS; format: in vivo, human; conditions: for Change in Total BPRS Score, mean: each arm with haloperidol 1 mg bid
# Text: This combination was designed to produce a lower IA (-)-3PPP, and thereby prolonging its antipsychotic activity. […] This dose of haloperidol may have delivered a measurable antipsychotic effect. […] (Table 5).
# [4] = system: hO3 Receptor (Homo sapiens); conditions: for Intrinsic Activity: calculated from the Low/High ratio; for Ratio Low/High: ratio of affinity at low-affinity agonist state to high affinity agonist state; for Ki: read-out: Ki (nM) ± S.D
# [5] = target: T1, hD47 (Homo sapiens, UniProt P21917)
# T1 sequence (P21917 1-419): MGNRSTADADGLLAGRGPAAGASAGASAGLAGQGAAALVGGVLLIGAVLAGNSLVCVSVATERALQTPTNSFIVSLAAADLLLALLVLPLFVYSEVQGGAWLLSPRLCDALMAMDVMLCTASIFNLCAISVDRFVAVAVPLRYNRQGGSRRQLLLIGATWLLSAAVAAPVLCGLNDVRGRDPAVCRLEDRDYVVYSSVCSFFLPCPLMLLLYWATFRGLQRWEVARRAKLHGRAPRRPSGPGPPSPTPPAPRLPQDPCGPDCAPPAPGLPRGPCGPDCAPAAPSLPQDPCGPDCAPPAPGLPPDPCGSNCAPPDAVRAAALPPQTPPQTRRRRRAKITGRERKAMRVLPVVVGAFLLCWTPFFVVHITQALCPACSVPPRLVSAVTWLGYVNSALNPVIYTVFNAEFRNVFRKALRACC
# [6] = system: schizophrenia; conditions: cited from earlier work
# [7] = system: L-DOPA-induced dyskinesia in Parkinson's disease; conditions: cited from earlier work
# [8] = target: T2, hD42 (Homo sapiens, UniProt P21917, DEL265-296); assay: biochemical
# T2 sequence (P21917 with tags, fused parts or gaps DEL265-296): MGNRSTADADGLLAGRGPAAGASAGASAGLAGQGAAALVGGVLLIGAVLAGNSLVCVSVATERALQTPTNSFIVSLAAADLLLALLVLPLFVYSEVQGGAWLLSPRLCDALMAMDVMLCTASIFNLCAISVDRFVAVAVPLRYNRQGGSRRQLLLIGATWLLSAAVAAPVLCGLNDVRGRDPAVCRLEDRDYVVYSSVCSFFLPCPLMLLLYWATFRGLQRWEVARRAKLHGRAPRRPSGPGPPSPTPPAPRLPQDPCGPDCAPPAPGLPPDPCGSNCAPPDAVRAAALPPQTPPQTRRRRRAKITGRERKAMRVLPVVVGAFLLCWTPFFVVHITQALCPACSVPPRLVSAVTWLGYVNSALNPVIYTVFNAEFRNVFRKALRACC
# [9] = target: T3, hD44 (Homo sapiens, UniProt P21917); assay: biochemical
# T3 sequence (P21917 1-419): T1 sequence (P21917 1-419)
# [10] = target: T4, hO44 Receptor (Homo sapiens, UniProt P21917); conditions: for Ki / Intrinsic Activity / Ratio Low/High: hO44 Receptor; for Ratio Low/High: ratio of affinity at low-affinity agonist state to high affinity agonist state
# T4 sequence (P21917 1-419): T1 sequence (P21917 1-419)
# [11] = target: D2 receptor (Homo sapiens, UniProt P14416); conditions: for Emax: CHO
# [12] = system: tardive dyskinesia; conditions: clinical pharmacology, in words; cited from earlier work
# [13] = target: hD21 Receptor (Homo sapiens, UniProt P14416); assay: Affinity and intrinsic activity of partial dopamine agonists, Table 3
# [14] = system: schizophrenia; conditions: grade symbols, key not given; cited from earlier work
# [15] = calculated from the Low/High ratio
# hO3 Receptor (Homo sapiens), sequence (P14416 whole entry): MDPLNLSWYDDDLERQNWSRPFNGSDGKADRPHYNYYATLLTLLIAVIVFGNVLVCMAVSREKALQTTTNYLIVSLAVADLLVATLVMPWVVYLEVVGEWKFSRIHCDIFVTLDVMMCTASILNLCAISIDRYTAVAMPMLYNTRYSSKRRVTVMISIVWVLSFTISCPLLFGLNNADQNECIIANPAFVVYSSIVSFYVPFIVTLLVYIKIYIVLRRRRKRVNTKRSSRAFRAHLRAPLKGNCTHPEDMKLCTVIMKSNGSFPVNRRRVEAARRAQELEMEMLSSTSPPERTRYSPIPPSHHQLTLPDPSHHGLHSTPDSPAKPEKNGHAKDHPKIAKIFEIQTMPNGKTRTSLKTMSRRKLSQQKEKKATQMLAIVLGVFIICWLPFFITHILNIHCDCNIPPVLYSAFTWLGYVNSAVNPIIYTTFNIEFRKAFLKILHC
# hD21 Receptor, sequence (P14416 whole entry): as above
# D2 receptor, sequence (P14416 whole entry): as above
# hD3 (Homo sapiens), sequence (P14416 whole entry): as above
smiles,measurement,setting,value
"CCCN1CCc2cccc3c2[C@H]1Cc1ccc(O)c(O)c1-3 [NPA, n-propylnorapomorphine]",Efficacy tolerance observed after,[1]; antipsychotic efficacy tolerance,24 h
"CCCN1CCCC(c2cccc(O)c2)C1 (single isomer, unassigned; (-)) [(−)-3-PPP, (−)3-(3-hydroxyphenyl)-N-n-propylpiperidine]",Emax,[2],46%
same,Duration of efficacy,[1]; antipsychotic efficacy before tolerance,up to 7 days
same,Antipsychotic effect over the trial,"[3]; (−)-3PPP 300 mg bid plus haloperidol 1 mg bid, two weeks",extended longer for the entire two week period of the trial without evidence of tolerance
same,"Change in Total BPRS Score, mean",[3]; Day 3,−1.4
same,"Change in Total BPRS Score, mean",[3]; Day 7,−3.4
same,"Change in Total BPRS Score, mean",[3]; Day 11,−3.3
same,"Change in Total BPRS Score, mean",[3]; Day 14,−4.6
same,Intrinsic Activity,[4],46%
same,Intrinsic Activity %,[5],98%
same,Ki,"[5]; high affinity agonist state, [3H]-agonist ligand",14.3 nM
same,Acute motor side effects,[6]; clinical application in schizophrenia,not accompanied by any acute motor side effect
same,Duration of antipsychotic action,"[6]; continuous dosing, agonist alone",approximately one week
same,Effect on L-DOPA-induced dyskinesia,[7],improves L-DOPA-induced dyskinesia in Parkinson's disease
same,Ki,[8],30.9 nM
same,Emax,[8]; read-out: Intrinsic Activity %,73%
same,Ki,[9],13.2 nM
same,Emax,[9]; read-out: Intrinsic Activity %,97%
same,Ki,[10]; Ki (nM) ± S.D.,12.2 ± 3.1 nM
same,Emax,"[10]; read-out: Intrinsic Activity, hO44 Receptor, calculated from the Low/High ratio",83%
same,Emax,"[11]; read-out: Intrinsic activity (IA), Example 2",40%
same,Emax,"[11]; read-out: Intrinsic activity, tested without haloperidol, FIG. 1",36%
same,Change of intrinsic activity with increasing concentrations of haloperidol,"[11]; varying concentrations of haloperidol, FIG. 1",linear reduction in the intrinsic activity
"CN1CCc2cccc3c2[C@H]1Cc1ccc(O)c(O)c1-3 [Apomorphine, apomorphine]",Effect on tardive dyskinesia,[12],"paradoxically improves tardive dyskinesia, both significantly and substantially"
CCCN1CCc2cccc3c2[C@H]1Cc1ccc(O)c(O)c1-3 [(−)-NPA],Intrinsic Activity,[4],100%
same,Intrinsic Activity,[10]; [15],57%
same,Ki,[10]; read-out: Ki (nM) ± S.D.,0.6 ± 0.2 nM
CN1CCc2cccc3c2[C@@H]1Cc1ccc(O)c(O)c1-3 [(+)-Apo],Intrinsic Activity,[10]; [15],55%
CN1CCc2cccc3c2[C@H]1Cc1ccc(O)c(O)c1-3 [(−)-Apo],Intrinsic Activity,[10]; [15],80%
CCCN(CCc1cccs1)[C@H]1CCc2c(O)cccc2C1 [(−)-N-0437],Intrinsic Activity,[4],94%
same,Ratio Low/High,[4],145
same,Ki,[4],0.08 ± 0.04 nM
same,Intrinsic Activity,[10]; [15],88%
same,Ratio Low/High,[10],106
same,Ki,[10]; read-out: Ki (nM) ± S.D.,1.1 ± 0.7 nM
CN1C[C@H](CN2CC(=O)NC(=O)C2)C=C2c3cccc4[nH]cc(c34)C[C@H]21 [FCE-23884],Intrinsic Activity,[13],37.0%
same,Ki,"[13]; read-out: Ki (HiAg State), high affinity agonist state",0.4 nM
same,Ki,"[13]; read-out: Ki (LowAg State), low affinity agonist state",2.17 nM
CN1C[C@H](CSc2ccccn2)C=C2c3cccc4[nH]cc(c34)C[C@H]21 [CF25-397],Effect on tardive dyskinesia,[12],modestly improved dyskinetic symptoms in TD
same,Antipsychotic,[14],0
"CCCN1CCCC(c2cccc(O)c2)C1 (single isomer, unassigned; (+)) [(+)-3-PPP]",Intrinsic Activity,[4],81%
same,Ki,[10]; Ki (nM) ± S.D.,12 ± 6.5 nM
same,Intrinsic Activity,[10]; [15],96%
CCCN1CCc2cccc3c2[C@@H]1Cc1ccc(O)c(O)c1-3 [(+)-NPA],Intrinsic Activity,[4],61%
same,Intrinsic Activity,[10]; [15],58%
same,Ki,[10]; read-out: Ki (nM) ± S.D.,2.3 ± 2 nM
"CCCN(CCc1cccs1)C1CCc2c(O)cccc2C1 (single isomer, unassigned; (+)) [(+)-N-0437]",Intrinsic Activity,[4],48%
same,Ratio Low/High,[4],10
same,Ki,[4],4.8 ± 2.3 nM
same,Intrinsic Activity,[10]; [15],72%
same,Ratio Low/High,[10],40
same,Ki,[10]; read-out: Ki (nM) ± S.D.,7.7 ± 3.4 nM
"c1cnc(N2CCN(Cc3ccc4c(c3)OCO4)CC2)nc1 [Piribedil (S584), piribedil]",Effect on tardive dyskinesia,[12],modestly improved dyskinetic symptoms in TD
same,Antipsychotic,[14],0
"O=C(CCCN1CCC(O)(c2ccc(Cl)cc2)CC1)c1ccc(F)cc1 [Haloperidol, haloperidol]","Change in Total BPRS Score, mean",[3]; Day 3,−1.0
same,"Change in Total BPRS Score, mean",[3]; Day 7,−0.2
same,"Change in Total BPRS Score, mean",[3]; Day 11,−0.1
same,"Change in Total BPRS Score, mean",[3]; Day 14,−1.1
